According to patent CN109475563A, “蛋白酶抑制剂的长效医药组合物” (Taimed Biologics Inc, priority 2016, dated 2017):

Key:
[1] = Rat subcutaneous PK, microparticle vs nanosuspension of TMB-607; format: in vivo; conditions: SC
[2] = Dog PK, intramuscular vs subcutaneous nanosuspension of TMB-607; format: in vivo, beagle dog; conditions: Fig. 3
[3] = Monkey PK, nanosuspensions of different particle size; format: in vivo
[4] = PK of injectable nanosized TMB-607 (summary statement); format: in vivo; conditions: injectable formulation of nanosized TMB-607; species not stated
[5] = target: HIV-1 protease (HIV-1蛋白酶) (Human immunodeficiency virus type 1 group M subtype B, UniProt P04585); conditions: cited from earlier work
[6] = system: laboratory-adapted virus (实验室适应病毒); conditions: 48-week in vitro selection, increasing TMB-607 concentration; cited from earlier work
[7] = system: single mutations in the protease open reading frame (蛋白酶开放读框); conditions: in vitro, site-directed mutagenesis; cited from earlier work
[8] = male beagle dog, 60 mg/kg, particle size about 150 nm, 6 weeks

COC(=O)N[C@H](C(=O)NCCCC[C@@H](CO)N(CC(C)C)S(=O)(=O)c1ccc(N)cc1)C(c1ccccc1)c1ccccc1 [TMB-607]
duration of plasma level above protein-binding-adjusted EC50 ([1]; nano-sized TMB-607, printed as 247 nm, Fig. 2): 14 days
duration for which TMB-607 plasma level is maintained ([1]; nanosuspension printed as 247 nm, compared with microparticle 2470 nm, Fig. 2): > 14 days
plasma level above protein-binding-adjusted EC50 for 14 days (in words) ([1]; microparticle 2470 nm, Fig. 2 (general description)): 不能
Cmax in the initial period (in words) ([1]; rat, microparticle 2470 nm, 16.7 mg/kg): 引人注目的高Cmax
plasma level above protein-binding-adjusted EC50 for 14 days (in words) ([1]; rat, microparticle 2470 nm, 16.7 mg/kg, Fig. 2): 不能
release profile (in words) ([1]; rat, nanosuspension 240 nm, 23.5 mg/kg): 持续的释放曲线
duration of plasma level above protein-binding-adjusted EC50 ([1]; rat, nanosuspension 240 nm, doses printed for microparticle and nanosuspension 16.7 and 23.5 mg/kg respectively, Fig. 2): 14 days
AUC0-t, SC versus IM (in words) [2, 8]: 没有在AUC0-t值中观察到明显的差异
Cmax, IM versus SC (in words) [2, 8]: 肌肉给药路径的Cmax值高于皮下给药路径的Cmax值
plasma level after single IM or SC injection (in words) ([2]; single IM or SC injection of nanosuspension): 延长了TMB-607的血浆水平
plasma level and duration of action, smaller particle size (in words) ([3]; 113 nm compared with 214 nm): 较高的血浆水平和较长的作用时间
plasma level and duration of action, smaller particles (in words) ([3]; monkey, 60 mg/kg, 113 nm versus 214 nm, Fig. 4): 较高的血浆水平和较长的作用时间
AUC0-t on reducing particle size (in words) ([3]; monkey, injected nanosuspension, 60 mg/kg, 214 nm versus 113 nm, 4 weeks): AUC0-t和t1/2均大致增加
plasma level (in words) ([3]; particle sizes 214 nm and 113 nm): 都可以延长血浆水平
duration of stable plasma levels [4]: > 1 month
inhibition of HIV-1 protease (potency, in words) [5]: 效用 and 有效
selectivity in inhibiting HIV-1 protease (in words) [5]: 选择性 and 有选择性
mutations selected in protease open reading frame [6]: 四个突变
resistance caused by single mutation (in words) [7]: 单一突变不会导致对TMB-607的明显抗药性
